# Assays:
# Settings in all cases: read-out: K1; phosphate buffer pH 7.6, 25 °C; stronger site of two-site fit
# [1] = target: PfRKIP (Plasmodium falciparum, UniProt Q7KQK1, H92A)
# [2] = target: PfRKIP (Plasmodium falciparum, UniProt Q7KQK1, P80L)
# [3] = target: PfRKIP (Plasmodium falciparum, UniProt Q7KQK1, S96A)
# [4] = target: HsRKIP (Homo sapiens, UniProt P30086); test: ITC, sequential binding model
# [5] = target: T1, PfRKIP (Plasmodium falciparum, UniProt Q7KQK1); test: ITC, sequential binding model
# T1 sequence (Q7KQK1 1-190): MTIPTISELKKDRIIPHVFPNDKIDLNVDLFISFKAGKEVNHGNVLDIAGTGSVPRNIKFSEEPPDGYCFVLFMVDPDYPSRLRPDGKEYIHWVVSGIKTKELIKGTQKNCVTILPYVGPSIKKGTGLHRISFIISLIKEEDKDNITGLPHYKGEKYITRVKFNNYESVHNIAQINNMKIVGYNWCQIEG
# Sequence of HsRKIP (P30086 whole entry): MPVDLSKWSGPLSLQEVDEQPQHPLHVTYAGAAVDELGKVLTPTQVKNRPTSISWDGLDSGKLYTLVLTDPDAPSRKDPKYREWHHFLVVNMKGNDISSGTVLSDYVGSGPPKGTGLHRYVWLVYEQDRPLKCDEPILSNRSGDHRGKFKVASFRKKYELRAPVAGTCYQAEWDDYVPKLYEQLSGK
compound,measurement,setting,value
CCCCCCCCCCCCCCCC(=O)OC[C@H](COP(=O)(O)O[C@@H]1[C@H](O)[C@H](OP(=O)(O)O)[C@@H](O)[C@H](O)[C@H]1O)OC(=O)CCCCCCCCCCCCCCC [PtdIns(3)P],Kd,[1],15.6 µM
same,Kd,[2],109 µM
same,Kd,[3],15.6 µM
same,Kd,[4],43.5 µM
same,Kd,[5],11.5 µM
